Molecules are shown by their SMILES.

For this test, the system named is aortic explants. The experiment in a line: Vessel growth (sprouts and branches) from mouse aortic explants in collagen gel. The note with it: for Branches Mean / Sprouts Mean: 1 μL/mL DMSO, 6 days culture, 8 replicates. The test is classed as cell-based, C57BL6/J mice. Here is the method:
Three male C57BL6/J mice (9 weeks old) were sacrificed by CO2 asphyxiation and the blood harvested by heart puncture using a 29 gauge needle. The aorta was then dissected (from the aortic arch to the pleural/peritoneal interface) and placed in ice-cold DMEM supplemented with 10 mM Hepes and penicillin/streptomycin.
The fibrous and adipose tissues surrounding the aorta were removed by microscopic dissection and the aorta flushed of blood using ice cold DMEM. The aorta was then longitudinally bisected and cut into approximately 1 mm squares. Individual pieces of aorta were embedded in a drop (20 μL) of collagen solution in the bottom of a well of a 24 well tissue culture plate. The plates were then placed at 37° C./5% CO2 for 10 minutes to polymerise the collagen into a gel. Media (0.3 mL) alone, containing DMSO or deltonin in DMSO was then added to each well to form a moat around the collagen gel.
Only the central 8 wells of each 24 well plate were used for explant cultures to avoid differential gaseous exchange and evaporation rates between explant sample wells. The outer wells were filled with PBS.
Nine groups of 8 replicates each were tested:
The explants were then cultured at 37° C./5% CO2 in a humid incubator for 6 days. Explants were fixed at room temperature for 20 minutes by adding an equal volume (0.3 mL) of 4% paraformaldehyde in PBS to each well. After washing three times with HEPES-buffered saline (HBS, 150 mM NaCl, 10 mM HEPES) the explants were stained with 10 μg/ml FITC-BS-1 lectin conjugate (BS-1 lectin specifically binds mouse endothelial cells) in HBS overnight at 4° C. The following day the explants were washed three times with HBS. Vessel outgrowths from explants were visualised by fluorescence microscopy and photographs taken for data analysis. Multiple multidepth focus fluorescent images were photographed for each explant and the photographs processed using deconvolution software so that total vessel outgrowth for each explant could be determined Total cellular growth associated with each explant was also visualised by light microscopy using a dissecting microscope and documented by photography. For ease of visualisation and analysis a composite inverted black and white image was prepared from the multiple fluorescent images of the vessel outgrowths for each explant. The number of vessel sprouts and the number of vessel branches for each explant was then counted with the person counting being blinded to the identity of each sample. The results are summarised in Table 4, and shown graphically in FIG. 1.

As to `C[C@@H]1CC[C@@]2(OC1)O[C@H]1C[C@H]3[C@@H]4CC=C5C[C@@H](O[C@@H]6O[C@H](CO)[C@@H](O[C@@H]7O[C@H](CO)[C@@H](O)[C@H](O)[C@H]7O)[C@H](O)[C@H]6O[C@@H]6O[C@@H](C)[C@H](O)[C@@H](O)[C@H]6O)CC[C@]5(C)[C@H]4CC[C@]3(C)[C@H]1[C@@H]2C` [Deltonin, diosgenin Rha2, [Glc4], Glc], the “Branches Mean” value (0.01 μM deltonin) is given as 16; the “Branches Mean” value (0.03 μM deltonin) turned out to be 26; the “Branches Mean” value (0.1 μM deltonin) is reported as 24; the “Branches Mean” value (0.3 μM deltonin) is given as 20; the “Branches Mean” value (1 μM deltonin) came to 16; the “Branches Mean” value (3 μM deltonin) amounted to 0. Where the note is “10 μM deltonin”, the “Branches Mean” value amounted to 0. Also, the “Sprouts Mean” value is 11 (0.01 μM deltonin); 18 (0.03 μM deltonin); 18 (0.1 μM deltonin); 16 (0.3 μM deltonin); 13 (1 μM deltonin); 0 (3 μM deltonin). The “Sprouts Mean” value (10 μM deltonin) worked out at 0. The “vessel branches from aortic explants in comparison to DMSO treated control explant cultures” value (at 10, 3 and 1 μM) is on record as “significantly inhibited”. The “vessel sprouts from aortic explants in comparison to DMSO treated control explant cultures” value (at 10 and 3 μM) is on record as “significantly inhibited”.

Source of the values: patent US20150079029A1, “METHODS AND COMPOSITIONS FOR INHIBITING ANGIOGENESIS” (Oncology Research International Limited, priority 2006, published 2015).
